The text below walks through data of patent US20250296938A1, “Compounds that Interact with the Ras Superfamily for the Treatment of Cancers, Inflammatory Diseases, Rasopathies, and Fibrotic Disease” (SHY Therapeutics, LLC, priority 2018, published 2025).

Common to all, as to assay: Ras GTP binding domain inhibition assay (Cy3-GTP/Cy5-GTP competition)
One assay concerns KRas G12C mutant. The arrangement: species or system human. The settings on record: 20 μM; for KRas G12C mutant + SOS: % inh.: with SOS; for KRas G12C mutant: % inh.: without SOS. Put shortly: (§1)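 First, His-tagged protein is coated on nickel wells overnight at 4 °C. Next, compound (20 μM single point or serial dilution) is added for 3 h at room temperature, with or without Sos exchange factor in the last hour. Finally, 100 nM labelled GTP binds for 45 min and retained signal is measured.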

Another assay has as its system KRas Q61H mutant. Details: species or system human. The settings on record: 20 μM; for KRas Q61H mutant + SOS: % inh.: with SOS; for KRas Q61H mutant: % inh.: without SOS. Put shortly: as §1
The next assay has as its system KRas wild type. The arrangement: species or system human. The settings on record: 20 μM; for KRas wild type + SOS: % inh.: with SOS; for KRas wild type: % inh.: without SOS. Put shortly:
as §1

The target in the next assay is T1, KRas G12D mutant (Homo sapiens, UniProt P01116, G12D).
T1 construct: fused on or other part: His tag, used for capture on nickel-coated plates
As to conditions: 20 μM. A digest of the protocol: as §1

The mark [1] stands for this setting: with SOS, read-out: KRas G-12D mutant + SOS: % inh.
The mark [2] stands for this setting: without SOS, read-out: KRas G12D mutant: % inh.

Read-outs that look alike come from different tables or passages of the source.

As to `COCCCNc1nc(-c2nccn2C)nc2sc(-c3ccn(C)n3)c(-c3ccc(OC)cc3)c12` [drawing 870], in the assay with KRas G12C mutant, the “KRas G12C mutant + SOS: % inh.” value was “A (1-25% inhibition)” and the “KRas G12C mutant: % inh.” value is reported as 0 (0% inhibition). For the same compound, in the assay with KRas Q61H mutant, the “KRas Q61H mutant + SOS: % inh.” value is recorded as “A (1-25% inhibition)” and the “KRas Q61H mutant: % inh.” value was “A (1-25% inhibition)”. Also, in the assay with KRas wild type, the “KRas wild type + SOS: % inh.” value was 0 (0% inhibition) and the “KRas wild type: % inh.” value is “A (1-25% inhibition)”. Besides, on KRas G12D mutant (setting [1]), the inhibition at 20 µM lay in the range of 1 to 25%. The inhibition at 20 µM at KRas G12D mutant (setting [2]) is 0%.
Regarding `COCCNc1nc(-c2nccn2C)nc2sc(-c3cc(OC)ccc3Cl)c(-c3ccccc3)c12` [drawing 871], in the assay on KRas G12C mutant, the “KRas G12C mutant + SOS: % inh.” value is “A (1-25% inhibition)” and the “KRas G12C mutant: % inh.” value is given as 0 (0% inhibition). Also, in the assay on KRas Q61H mutant, the “KRas Q61H mutant + SOS: % inh.” value was “A (1-25% inhibition)” and the “KRas Q61H mutant: % inh.” value is given as “C (51-75% inhibition)”. In the assay with KRas wild type, the “KRas wild type + SOS: % inh.” value was “A (1-25% inhibition)” and the “KRas wild type: % inh.” value is recorded as “B (26-50% inhibition)”. Besides, at KRas G12D mutant (setting [1]), the inhibition at 20 µM fell in the range of 1 to 25%. For the same compound, the inhibition at 20 µM on KRas G12D mutant (setting [2]) is 26 to 50%.
With `COCCNc1nc(-c2nccn2C)nc2sc(-c3cccc(OC)c3Cl)c(-c3ccccc3)c12` [drawing 872], in the assay on KRas G12C mutant, the “KRas G12C mutant + SOS: % inh.” value was “D (76-100% inhibition)” and the “KRas G12C mutant: % inh.” value is listed as “C (51-75% inhibition)”. For the same compound, in the assay with KRas Q61H mutant, the “KRas Q61H mutant + SOS: % inh.” value is “D (76-100% inhibition)” and the “KRas Q61H mutant: % inh.” value was “B (26-50% inhibition)”. Besides, in the assay on KRas wild type, the “KRas wild type + SOS: % inh.” value is given as “D (76-100% inhibition)” and the “KRas wild type: % inh.” value is “B (26-50% inhibition)”. Moreover, on KRas G12D mutant (setting [1]), the inhibition at 20 µM lay within 76 to 100%. The inhibition at 20 µM on KRas G12D mutant (setting [2]) is 1 to 25%.
With `COCCNc1nc(-c2cn(C)cn2)nc2sc(-c3ccccc3Cl)c(-c3ccc(OC)cc3)c12` [drawing 873], in the assay on KRas G12C mutant, the “KRas G12C mutant + SOS: % inh.” value is “D (76-100% inhibition)” and the “KRas G12C mutant: % inh.” value is “C (51-75% inhibition)”. In the assay with KRas Q61H mutant, the “KRas Q61H mutant + SOS: % inh.” value is “D (76-100% inhibition)” and the “KRas Q61H mutant: % inh.” value is “B (26-50% inhibition)”. For the same compound, in the assay on KRas wild type, the “KRas wild type + SOS: % inh.” value is “D (76-100% inhibition)” and the “KRas wild type: % inh.” value is “A (1-25% inhibition)”. The inhibition at 20 µM at KRas G12D mutant (setting [1]) lay in the range of 76 to 100%. For the same compound, the inhibition at 20 µM at KRas G12D mutant (setting [2]) was in the range of 26 to 50%.
On to `COCCNc1nc(-c2nccn2C)nc2sc(-c3cccc(OC)c3Cl)c(-c3ccc(OC)cc3)c12` [drawing 874], for which, in the assay with KRas G12C mutant, the “KRas G12C mutant + SOS: % inh.” value is recorded as “D (76-100% inhibition)” and the “KRas G12C mutant: % inh.” value is reported as “B (26-50% inhibition)”. In the assay on KRas Q61H mutant, the “KRas Q61H mutant + SOS: % inh.” value was “D (76-100% inhibition)” and the “KRas Q61H mutant: % inh.” value is reported as “A (1-25% inhibition)”. In addition, in the assay on KRas wild type, the “KRas wild type + SOS: % inh.” value is reported as “D (76-100% inhibition)” and the “KRas wild type: % inh.” value is reported as “B (26-50% inhibition)”. The inhibition at 20 µM at KRas G12D mutant (setting [1]) lay within 51 to 75%. Besides, the inhibition at 20 µM on KRas G12D mutant (setting [2]) lay in the range of 1 to 25%.
As for `COCCNc1nc(-c2nccn2C)nc2sc(-c3cccc(OC)c3)c(-c3ccc(OC)cc3)c12` [drawing 875], in the assay with KRas G12C mutant, the “KRas G12C mutant + SOS: % inh.” value is “D (76-100% inhibition)” and the “KRas G12C mutant: % inh.” value is given as “C (51-75% inhibition)”. In the assay on KRas Q61H mutant, the “KRas Q61H mutant + SOS: % inh.” value is reported as “D (76-100% inhibition)” and the “KRas Q61H mutant: % inh.” value is given as “B (26-50% inhibition)”. Moreover, in the assay on KRas wild type, the “KRas wild type + SOS: % inh.” value is “D (76-100% inhibition)” and the “KRas wild type: % inh.” value is recorded as “B (26-50% inhibition)”. Moreover, the inhibition at 20 µM at KRas G12D mutant (setting [1]) lay in the range of 76 to 100%. The inhibition at 20 µM on KRas G12D mutant (setting [2]) lay within 51 to 75%.
As to `COCCNc1nc(-c2nccn2C)nc2sc(-c3ccccc3Cl)c(-c3ccc(OC)cc3)c12` [drawing 876], in the assay with KRas G12C mutant, the “KRas G12C mutant + SOS: % inh.” value is reported as “D (76-100% inhibition)” and the “KRas G12C mutant: % inh.” value is “B (26-50% inhibition)”. In addition, in the assay on KRas Q61H mutant, the “KRas Q61H mutant + SOS: % inh.” value is given as “D (76-100% inhibition)” and the “KRas Q61H mutant: % inh.” value is recorded as “B (26-50% inhibition)”. Further, in the assay with KRas wild type, the “KRas wild type + SOS: % inh.” value was “D (76-100% inhibition)” and the “KRas wild type: % inh.” value is reported as “B (26-50% inhibition)”. In addition, the inhibition at 20 µM at KRas G12D mutant (setting [1]) was 76 to 100%. The inhibition at 20 µM on KRas G12D mutant (setting [2]) is 26 to 50%.
In the case of `COCCNc1nc(-c2nccn2C)nc2sc(-c3cc(OC)ccc3Cl)c(-c3ccc(OC)cc3)c12` [drawing 877], in the assay on KRas G12C mutant, the “KRas G12C mutant + SOS: % inh.” value is given as “C (51-75% inhibition)” and the “KRas G12C mutant: % inh.” value was “A (1-25% inhibition)”. For the same compound, in the assay on KRas Q61H mutant, the “KRas Q61H mutant + SOS: % inh.” value is reported as “D (76-100% inhibition)” and the “KRas Q61H mutant: % inh.” value is “A (1-25% inhibition)”. For the same compound, in the assay with KRas wild type, the “KRas wild type + SOS: % inh.” value is on record as “D (76-100% inhibition)” and the “KRas wild type: % inh.” value is given as “A (1-25% inhibition)”. For the same compound, at KRas G12D mutant (setting [1]), the inhibition at 20 µM was 26 to 50%. For the same compound, the inhibition at 20 µM on KRas G12D mutant (setting [2]) was 1 to 25%.
